Assay results published in patent publication US7338932B2, “Methods of modulating functions of polypeptide GalNAc-transferases and of screening test substances to find agents herefor, pharmaceutical compositions comprising such agents and the use of such agents for preparing medicaments” (Glycozym APS, priority 2000, dated 2008).

Columns and labels:
[1] = target: T1, GalNAc-T7 (Homo sapiens, UniProt Q86SF2); assay: Inhibition of GalNAc-T7 activity with GalNAc2-3EA2 substrate; type: biochemical; conditions: 5 mM
T1 construct: made in house; host or cells: High Five insect cells (baculovirus)
T1 sequence (Q86SF2 30-657 limits assumed): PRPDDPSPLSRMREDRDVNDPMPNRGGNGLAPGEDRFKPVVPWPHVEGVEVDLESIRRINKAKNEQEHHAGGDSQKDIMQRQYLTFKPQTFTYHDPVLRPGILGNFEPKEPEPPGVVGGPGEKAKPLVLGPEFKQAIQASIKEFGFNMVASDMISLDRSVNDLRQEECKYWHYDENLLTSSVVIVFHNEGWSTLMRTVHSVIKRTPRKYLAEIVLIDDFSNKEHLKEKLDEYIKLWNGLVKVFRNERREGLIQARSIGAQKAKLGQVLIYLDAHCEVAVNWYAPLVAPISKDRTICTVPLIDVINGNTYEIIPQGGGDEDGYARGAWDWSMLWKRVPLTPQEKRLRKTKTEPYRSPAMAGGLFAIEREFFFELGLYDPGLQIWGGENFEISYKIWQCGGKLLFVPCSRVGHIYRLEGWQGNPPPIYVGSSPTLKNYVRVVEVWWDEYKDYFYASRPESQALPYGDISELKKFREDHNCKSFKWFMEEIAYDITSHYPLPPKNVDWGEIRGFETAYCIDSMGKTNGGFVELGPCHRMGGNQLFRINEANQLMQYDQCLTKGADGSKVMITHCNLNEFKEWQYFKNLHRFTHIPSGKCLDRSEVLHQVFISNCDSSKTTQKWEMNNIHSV
Experimental: Standard reaction mixtures (50 μl final volume) contained 25 mM cocadylate (pH 7.4), 10 mM MnCl2, 0.25% Triton X-100, 200 μM UDP-[^14C]-GalNAc (2,000 cpm/nmol) (Amersham), 200-500 μM acceptor peptides. Products were quantified by scintillation counting after chromatography on Dowex-1, octadecyl silica cartridges (Bakerbond), or HPLC (PC3.2/3 or mRPC C2/C18 SC2.1/10 Pharmacia, Smart System). […] Glycopeptides were purified on Supelclean LC-18 columns (1 ml, Supelco), and the number of GalNAc residues incorporated evaluated by MALDI-TOF mass spectrometry. The enzyme sources used were semipurified as previously described by successive sequential ion-exchange chromatographies on Amberlite (IRA95, Sigma) or DEAE Sephacel (Pharmacia), S-Sepharose Fast Flow (Pharmacia), and Mini-S™ (PC 3.2/3, Pharmacia) using the Smart System (Pharmacia) (28). Secreted GalNAc-T4 was obtained from a stably transfected CHO line (CHO/GalNA-T4/21A) (8) grown in roller bottles in HAMS F12 supplemented with 10% Fetal Bovine Serum. The experiments illustrated in FIG. 1 was performed with recombinant secreted GalNAc-T4 obtained from a stably transfected CHO line (8). Experiments illustrated in FIGS. 2 and 3 were performed with secreted GalNAc-T4 expressed in High Five cells grown in serum-free medium (8). Structural analysis of glycopeptides were performed by a combination of PFPA (pentafluoropropionic acid) hydrolysis and MALDI-TOF mass spectrometry as previously described (40). Secreted GalNAc-T7 was obtained from infected High Five™ cells grown in serum-free medium (Invitrogen) in upright roller bottles shaken 140 rpm in waterbaths at 27° C. GalNAc-T7 was not purified by Mini-S as the yields from cationic chromatography were low due to its low pI (6.4).
GalNAc-T7 activity was analysed with GalNAc glycosylated glycopeptides (represented by GalNAc2-3EA2 (7)) in reactions of 25 μl containing 2.5 nmol acceptor (glyco)peptide, 40 nmol UDP-GalNAc, and purified GalNAc-T7. […]

[2] = target: T2, GalNAc-T4 lectin domain (T4ld) (Homo sapiens, UniProt Q8N4A0); assay: Direct binding ELISA to GalNAc-MUC1 glycopeptide, competitive inhibition, T4ld
T2 construct: made in house; host or cells: High Five insect cells (baculovirus, pAcGP67-A)
T2 sequence (Q8N4A0 405-578): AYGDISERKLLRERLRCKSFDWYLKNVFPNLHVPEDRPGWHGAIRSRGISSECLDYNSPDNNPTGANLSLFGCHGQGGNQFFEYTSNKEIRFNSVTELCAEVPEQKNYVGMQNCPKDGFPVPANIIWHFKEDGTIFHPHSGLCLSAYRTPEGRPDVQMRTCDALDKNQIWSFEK
Experimental: Protein biotinylation was made as previously reported^62. The pH of 1 ml purified protein (0.3 mg/ml) in PBS was adjusted to pH 9 with 1 M NaOH and 40 μl N-hydroxy-succinimidobiotin (Sigma) dissolved in DMF (10 mg/ml) was added. The solution was mixed end-over-end for 2 hours at room temperature, and dialyzed three times against PBS and an equal volume of glycerol was added. The biotinylated proteins were stored at −20° C. in 50% glycerol until use.
Direct binding ELISA assay was developed as follows: Polystyrene microtiter plates (Maxisorb, Nunc, Denmark) were coated with peptides or enzymatically glycosylated glycopeptides in PBS overnight at 4° C. Plates were washed and blocked with 0.1% Tween20 and 0.2% BSA in PBS for 1 h at room temperature, followed by incubation with biotinylated proteins in PBS with 0.05% Tween20 for 2 h at room temperature. After four washes with PBS, plates were incubated with 1:2,000 dilution streptavidin-HRP (Sigma) in PBS for 30 min at room temperature and washed four times with PBS. Development was performed with 0.5 mg/ml o-phenylenediamine and 0.02% H2O2 at room temperature for 15 min, and reaction stopped by adding 100 μl/well of 0.5 N H2SO4. Competitive inhibition assays were done at end-point titers of GalNAc-transferase proteins with one hour preincubations with inhibitor.
In binding studies using lectins without biotinylation antibodies to the HIS-tag and the T7-tag, or in some experiments antibodies raised to GalNAc-T2 and -T4 enzymes were used to detect binding.

Inhibition of GalNAc-T7 activity with GalNAc2-3EA2 [1] | Structure (SMILES) | IC50 [2]
significantly inhibited | CC(=O)N[C@H]1[C@@H](OCc2ccccc2)O[C@H](CO)[C@H](O)[C@@H]1O [GalNAcα-benzyl] | 
 | CC(=O)N[C@H]1[C@@H](OCc2ccccc2)O[C@H](CO)[C@@H](O)[C@@H]1O [GlcNAcα-benzyl] | > 100 mM
